Source: patent publication US7692012B2, “Vanadium compounds as inhibitors of phosphatases” (Imperial College Innovations Limited, priority 2003, dated 2010)
Read-outs that look alike come from different tables or passages of the source.

Columns and labels:
[1] = test system: PKB phosphorylation (pSer473) in NIH3T3 cells; assay: Ly294002 dose dependence with and without bpV(pic); assay type: cell-based
Procedure: In order to find out whether bpV(pic) has an influence on Ly294002-dependent PKB inhibition we accomplished a dose response experiment applying concentrations from 0.01 up to 100 μM Ly294002 to two sets of quiescent fibroblasts and incubated for 20 min. One batch of cells were then further treated with 200 nM bpV(pic) (5 min) and all cells were finally stimulated with 10 μg/ml insulin for 15 min. Cell lysates were collected as described earlier. Calculations and graph were performed using GraphPad Prism.
(§1) All cell lysate samples were loaded on 10% SDS-PAGE and transferred to PVDF membranes for PKB analysis and nitrocellulose for phospho tyrosine detection. For PKB Western Blots membranes were blocked for 1 h with 5% milk powder in TBST followed by an incubation with anti Mass PKB antibody (1:1000) or anti phospho-PKB (Ser473) antibody (1:1000) in TBST for 2 h. Finally, membranes were exposed to a horseradish peroxidase-conjugated secondary antiserum (BIORAD) (1:1000) in 5% milk powder solution for 1 h. The Western Blots were developed with ECL™ solution (Amersham). In order to detect phosphorylated tyrosine residues nitrocellulose membranes were blocked for 1 h with 2.5% milk powder, first incubated with a specific anti phosphotyrosine antibody (4G10) (1:3000) for 1 h, and finally with horseradish peroxidase-conjugated secondary anti mouse antiserum. All PKB and Phospho-Tyrosine experiments were accomplished in three independent experiments and all membranes were re-probed using a specific tubulin antibody (1:1000). Density analysis of bands took place using the public domain NIH Image V1.62 program (developed at the U.S. National Institutes of Health and available on the Internet at http://rsb.info.nih.gov/nih-image/).

MTM = target: T1, MTM (Homo sapiens, UniProt Q13496); assay: MTM IC50 (inositol phosphatase inhibition); assay type: biochemical
T1 sequence (Q13496 1-603): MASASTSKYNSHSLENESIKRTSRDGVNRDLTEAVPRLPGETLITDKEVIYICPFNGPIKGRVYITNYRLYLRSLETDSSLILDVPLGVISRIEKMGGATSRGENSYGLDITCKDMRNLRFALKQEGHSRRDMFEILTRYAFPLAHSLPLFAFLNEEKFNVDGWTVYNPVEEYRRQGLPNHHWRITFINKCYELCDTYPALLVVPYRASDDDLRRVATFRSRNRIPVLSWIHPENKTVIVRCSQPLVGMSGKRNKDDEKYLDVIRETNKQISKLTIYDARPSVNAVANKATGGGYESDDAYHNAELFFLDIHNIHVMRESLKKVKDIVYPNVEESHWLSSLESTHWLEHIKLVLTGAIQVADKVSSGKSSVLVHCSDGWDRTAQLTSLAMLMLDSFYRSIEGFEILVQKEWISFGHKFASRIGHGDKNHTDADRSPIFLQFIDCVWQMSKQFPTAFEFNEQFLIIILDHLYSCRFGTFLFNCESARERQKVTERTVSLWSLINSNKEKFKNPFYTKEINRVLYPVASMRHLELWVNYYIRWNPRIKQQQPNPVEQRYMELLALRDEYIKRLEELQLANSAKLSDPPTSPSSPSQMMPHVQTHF

PTP-β = target: T2, PTP-β (Homo sapiens, UniProt P23467); assay: PTPase assay with pNPP as substrate; assay type: biochemical
T2 construct: purchased Upstate Biotechnology
T2 sequence (P23467 23-1997): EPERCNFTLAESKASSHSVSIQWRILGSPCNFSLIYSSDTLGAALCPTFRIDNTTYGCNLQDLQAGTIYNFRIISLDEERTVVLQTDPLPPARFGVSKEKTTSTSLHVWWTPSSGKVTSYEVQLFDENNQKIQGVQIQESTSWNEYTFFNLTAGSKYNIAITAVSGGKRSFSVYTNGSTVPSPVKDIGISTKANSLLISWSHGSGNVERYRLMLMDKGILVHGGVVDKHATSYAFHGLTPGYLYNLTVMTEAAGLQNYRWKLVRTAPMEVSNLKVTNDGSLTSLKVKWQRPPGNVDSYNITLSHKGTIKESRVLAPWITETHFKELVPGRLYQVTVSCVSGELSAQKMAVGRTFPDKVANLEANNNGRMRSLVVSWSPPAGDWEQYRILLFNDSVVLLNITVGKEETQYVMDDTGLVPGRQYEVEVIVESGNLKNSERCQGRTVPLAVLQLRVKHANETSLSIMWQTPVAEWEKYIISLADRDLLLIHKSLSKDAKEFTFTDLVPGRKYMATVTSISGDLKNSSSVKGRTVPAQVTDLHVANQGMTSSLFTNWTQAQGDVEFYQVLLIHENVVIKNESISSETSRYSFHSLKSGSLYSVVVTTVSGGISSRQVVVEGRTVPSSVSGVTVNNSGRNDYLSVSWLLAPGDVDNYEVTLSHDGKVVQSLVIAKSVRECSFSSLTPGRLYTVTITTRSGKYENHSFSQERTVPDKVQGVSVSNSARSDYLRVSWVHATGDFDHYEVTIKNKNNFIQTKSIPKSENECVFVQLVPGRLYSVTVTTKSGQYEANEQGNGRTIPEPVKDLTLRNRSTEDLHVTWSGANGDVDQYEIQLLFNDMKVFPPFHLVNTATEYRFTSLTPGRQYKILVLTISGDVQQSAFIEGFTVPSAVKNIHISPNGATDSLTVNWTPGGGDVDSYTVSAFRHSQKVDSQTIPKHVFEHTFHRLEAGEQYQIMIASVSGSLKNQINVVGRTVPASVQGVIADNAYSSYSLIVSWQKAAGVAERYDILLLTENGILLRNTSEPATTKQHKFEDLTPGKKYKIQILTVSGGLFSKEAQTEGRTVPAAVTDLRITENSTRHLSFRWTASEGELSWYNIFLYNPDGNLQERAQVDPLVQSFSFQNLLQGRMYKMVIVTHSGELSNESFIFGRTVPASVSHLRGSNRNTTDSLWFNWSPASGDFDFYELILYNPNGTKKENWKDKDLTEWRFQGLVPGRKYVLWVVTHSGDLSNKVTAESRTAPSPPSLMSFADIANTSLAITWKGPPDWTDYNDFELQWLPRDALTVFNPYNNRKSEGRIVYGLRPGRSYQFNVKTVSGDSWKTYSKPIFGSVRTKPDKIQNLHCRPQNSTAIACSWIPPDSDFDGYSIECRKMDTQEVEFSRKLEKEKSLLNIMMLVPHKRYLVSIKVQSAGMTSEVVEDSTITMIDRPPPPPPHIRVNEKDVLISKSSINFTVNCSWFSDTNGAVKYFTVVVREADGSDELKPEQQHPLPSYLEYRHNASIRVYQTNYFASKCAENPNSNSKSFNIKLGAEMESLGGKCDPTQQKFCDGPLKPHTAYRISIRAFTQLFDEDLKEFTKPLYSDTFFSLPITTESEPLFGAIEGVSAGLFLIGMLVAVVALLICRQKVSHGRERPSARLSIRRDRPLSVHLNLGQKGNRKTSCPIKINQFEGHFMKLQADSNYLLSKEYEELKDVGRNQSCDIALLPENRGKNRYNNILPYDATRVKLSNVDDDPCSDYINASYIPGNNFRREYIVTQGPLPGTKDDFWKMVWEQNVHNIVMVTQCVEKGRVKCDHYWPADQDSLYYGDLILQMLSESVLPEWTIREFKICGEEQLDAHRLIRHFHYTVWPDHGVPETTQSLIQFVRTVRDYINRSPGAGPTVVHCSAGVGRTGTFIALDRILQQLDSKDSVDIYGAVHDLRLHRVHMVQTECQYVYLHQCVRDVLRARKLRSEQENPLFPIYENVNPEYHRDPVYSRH
Procedure: Protein tyrosine phosphatase (PTPase) assays were performed using the synthetic substrate p-nitrophenylphosphate (pNPP) and the phosphatases PTP-1B and PTP-β (Upstate Biotechnology). The standard assay conditions were 25 mM HEPES pH 7.2, 50 mM NaCl, 5 mM DTT, 2.5 mM EDTA, 100 μg/ml BSA, 1 mM pNPP (Sigma) and 4 unit PTP-1B and 10 unit PTP-β, respectively. The assay was started by adding the enzyme and was carried out for 15 min at 30 C in a preheated ELISA reader chamber. The linear increase of absorbance was monitored every 30 seconds at a wavelength of 410 nm.

SopB = SopB (Salmonella typhimurium, UniProt O30916); assay: biochemical; assay type: biochemical
SopB, sequence (O30916 whole entry): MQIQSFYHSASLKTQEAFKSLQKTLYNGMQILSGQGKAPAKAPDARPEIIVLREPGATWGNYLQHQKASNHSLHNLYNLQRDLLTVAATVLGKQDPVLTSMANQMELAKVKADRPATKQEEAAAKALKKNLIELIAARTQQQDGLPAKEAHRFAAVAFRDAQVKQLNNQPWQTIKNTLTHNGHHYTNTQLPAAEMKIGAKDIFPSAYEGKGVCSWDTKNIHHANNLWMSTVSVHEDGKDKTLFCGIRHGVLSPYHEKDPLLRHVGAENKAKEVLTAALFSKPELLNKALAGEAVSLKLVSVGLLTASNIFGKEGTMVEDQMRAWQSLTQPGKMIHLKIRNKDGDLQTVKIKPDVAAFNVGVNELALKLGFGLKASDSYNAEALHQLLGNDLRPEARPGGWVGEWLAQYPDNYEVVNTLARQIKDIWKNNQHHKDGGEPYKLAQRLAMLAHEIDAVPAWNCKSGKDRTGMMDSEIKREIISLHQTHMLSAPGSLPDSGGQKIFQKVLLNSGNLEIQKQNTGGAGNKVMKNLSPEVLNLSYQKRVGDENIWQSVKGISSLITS

PTEN [2] = target: T3, PTEN (Homo sapiens, UniProt P60484); assay: Malachite green phosphate release assay with PI(3,4,5)P3; assay type: biochemical; conditions: for PTEN inhibition, summary in words: comment below PTEN table; for specificity of phosphatase inhibition: PTEN versus SopB, MTM, PTP; for IC50: head says published data, same values as the applicant's FIG. 1 study, read-out: PTEN Published data In vitro enzyme assay confirmed by in vivo data
T3 construct: GST (N); made in house; host or cells: Escherichia coli DH5 alpha
T3 sequence (P60484 whole entry): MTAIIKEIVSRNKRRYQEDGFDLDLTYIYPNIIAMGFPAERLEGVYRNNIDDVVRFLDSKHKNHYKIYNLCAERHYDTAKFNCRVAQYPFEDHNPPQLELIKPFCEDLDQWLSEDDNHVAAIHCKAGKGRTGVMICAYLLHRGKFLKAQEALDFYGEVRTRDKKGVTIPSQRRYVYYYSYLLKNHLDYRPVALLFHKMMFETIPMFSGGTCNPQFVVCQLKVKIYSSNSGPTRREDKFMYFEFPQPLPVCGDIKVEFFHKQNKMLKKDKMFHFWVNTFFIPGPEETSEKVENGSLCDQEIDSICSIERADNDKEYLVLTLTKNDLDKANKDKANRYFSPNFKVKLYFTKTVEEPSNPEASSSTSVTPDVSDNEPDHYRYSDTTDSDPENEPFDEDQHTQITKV
Procedure: The coding region of the DNA sequence of human PTEN was cloned into a pGEX-4T2 expression vector (Pharmacia). Protein expression was induced overnight in the Escherichia coli DH5[…] strain using 100 μM IPTG at 18 C. GST-fusion proteins were purified according to the manufacturer's manual using glutathione sepharose 4B (Pharmacia). Protein integrity and specificity were confirmed on a Western Blot using GST antibody (Novagen).
Enzyme activity of recombinant PTEN was measured with a malachite green dye based phosphate release assay (No 230, No 83). The standard assay conditions were 200 mM Tris pH 7.4, 50 ng/μl BSA, and 15 ng/μl PTEN. The synthetic lipid PI(3,4,5)P3dC16 (Cell Signals) was used as a substrate for PTEN. The lipid was dissolved in methanol/H2O and stored at −20 C. Prior to the use in these PIPase experiments, an appropriate amount of lipid was dried down and resuspended in 1% Octylglycoside (Sigma). After 10 min of sonication lipid samples were ready to be added to the enzyme assay. All assays were started by adding the enzyme into the pre-heated buffer solution, containing PI(3,4,5)P3dC16. Linear PIPase reactions were performed at 30 C for 30 min in an incubation chamber. In order to stop the enzyme reaction, 0.7 volume of colour reagent (2.3 mg/ml malachite green in 3.6 M HCl and 17 mM ammonium molybdate) was added to the enzyme solution. The mixture was allowed to develop for 20 min and the absorbance at 625 nm was measured. For all inhibitor studies inhibitor concentrations from 0.1 nM up to 500 nM were pre-incubated with PTEN and the enzyme assays were started by adding 150 μM sonicated lipid. To normalize the phosphate release a phosphate standard curve was used. All experiments were repeated in tripletts. Calculations for IC50 values were performed using GraphPad Prism.

[3] = test system: PKB phosphorylation (pSer473) in NIH3T3 cells; assay: PKB assay: activation of insulin signalling pathway (insulin mimetic property), NIH3T3; assay type: cell-based; conditions: NIH3T3, 1 μM, 15 min, no insulin
Procedure: (§2) NIH3T3 cells (passage 5-20) were grown in 10% NCS D-MEM (GIBCO BRL) in 6-well plates at 37 C and 5% CO2. Starvation of the cells was carried out over 72 h in D-MEM containing 0.5% NCS. Prior use medium was changed to 0% D-MEM. UM-UC-3 cells which is a PTEN^− bladder tumour cell line (NO 195, No 196) were grown in 10% MEM (GIBCO BRL), starved with 0.5% MEM also for three days and finally incubated with serum free MEM.
Cells were washed once with PBS and lysed using 80 μl SDS-PAGE buffer (250 mM Tris pH 6.8, 20% glycerol, 4% SDS, 0.01% bromphenol blue, 50 mM mercaptoethanol). Samples were boiled for 15 min and stored at −20 C until analysis on Western Blots as described in the last paragraph.
as §1

PTEN [4] = target: T4, PTEN (Mus musculus, UniProt O08586); assay: PTEN preliminary data (western blots); assay type: cell-based
T4 construct: endogenous in cells; host or cells: NIH3T3
T4 sequence (O08586 whole entry): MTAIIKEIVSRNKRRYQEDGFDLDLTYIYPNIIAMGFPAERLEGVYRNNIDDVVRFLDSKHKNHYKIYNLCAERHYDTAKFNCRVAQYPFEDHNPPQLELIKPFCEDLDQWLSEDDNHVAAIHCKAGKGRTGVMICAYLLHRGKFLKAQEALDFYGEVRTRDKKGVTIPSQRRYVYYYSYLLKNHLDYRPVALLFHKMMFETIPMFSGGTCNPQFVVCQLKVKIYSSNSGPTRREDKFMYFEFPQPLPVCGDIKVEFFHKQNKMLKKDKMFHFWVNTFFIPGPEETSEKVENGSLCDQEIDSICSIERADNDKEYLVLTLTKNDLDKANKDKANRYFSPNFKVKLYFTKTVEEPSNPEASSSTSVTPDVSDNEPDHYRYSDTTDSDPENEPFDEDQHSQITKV
Procedure: (§3) UM-UC-3 cells were treated in exactly the same manner. Cell samples were analysed on Western Blots with PKB antibodies.
as §1

PTEN [5] = target: T4, PTEN; assay: PKB assay: dose dependence of PTEN inhibition in insulin-stimulated NIH3T3 cells (pSer473 Western blot); assay type: cell-based; conditions: for increase of PKB phosphorylation in comparison with the control: 20 nM compound, control 0.5 μg/ml insulin; for IC50: NIH3T3, 5 min compound then 0.5 μg/ml insulin 15 min, read-out: IC50 (in vivo PTEN inhibition, densitometry of pSer473 PKB)
Procedure: as §2, §3, §1

[6] = test system: phosphorylation of tyrosine residues in NIH3T3 cells; assay: Phosphotyrosine assay with NIH3T3 cells; assay type: cell-based; conditions: 15 min
Procedure: NIH3T3 cells were grown and starved as described earlier. After 72 h starvation cells were incubated for 15 min with 10% NCS, 50, 10 and […] insulin (Sigma), 10, 1, 0.1 and 0.01 μM bpV(pic) and bpV(phen), respectively. Cell lysates were prepared as described above and all samples were analysed on Western Blots using an anti phospho-tyrosine antibody (Upstate).
as §1

NIH3T3 cells = assay: Phalloidin staining (actin re-arrangement, morphology); assay type: cell-based; conditions: 0.1 μM, 6 h and 24 h
Procedure: In order to monitor morphological changes NIH3T3 cells were grown on 8-well chamber slides and incubated with concentrations of bpV(pic) and bpV(phen) between 0.1 and 10 μM for 6 h and 24 h, respectively. Fibroblasts were fixed with 4% para-formaldehyde (PFA), permeabilised with 0.2% Triton and blocked with 10% NCS (newborn calf serum). To stain actin filaments cells were incubated with TRITC-phalloidin (Sigma) (1:1000) for 1 h. Finally, nuclei were DAPI (Sigma) stained and mounted. Morphological analyses were assessed on a microscope using filters for TRITC and DAPI and pictures were captured using a camera.

[7] = test system: PKB phosphorylation (Ser473) in NIH3T3 cells; assay: PKB assay in the presence of PI3K inhibitor Ly294002 and mTOR inhibitor rapamycin; assay type: cell-based
Procedure: In order to study the influence of PI3K and mTOR on the bpV-dependent insulin mimetic feature we treated NIH3T3 cells with 10 μM LY294002 (Promega) and 50 nM rapamycin (Calbiochem) for 20 min and 30 min, respectively, followed by an incubation with 10 μM or 1 μM bpv(pic) for 15 min. Cell lysates were analysed on PKB Western Blots.
as §1

[8] = +IV compound, read-out: IC50 SopB
[9] = +V compound, read-out: IC50 SopB

## O=c1cc(N2CCOCC2)oc2c(-c3ccccc3)cccc12 [Ly294002, reference compound]
[1]; NIH3T3, 10 μg/ml insulin, without bpV(pic)
  concentration sufficient to inhibit PKB activation completely: 5 µM

## O=C([O-])c1ncccc1O.O=C([O-])c1ncccc1O.[O]=[V+2] [OHpic4]
MTM; Compound(+IV)
  IC50: 4030 ± 40 nM
PTP-β; V(+IV) compounds
  IC50: 57500 ± 9400 nM
SopB; [8]
  IC50: 588 ± 163 nM
PTEN [2]
  PTEN inhibition, summary in words: very good inhibitors

## O=C([O-])c1ccc(O)cn1.[K+].[K+].[O-2].[O-][O-].[O-][O-].[V+5] [bpV(HOpic), dipotassium bisperoxo(5-hydroxypyridine-2-carboxyl)oxovanadatel]
[3]
  phosphorylated PKB signal: weak signal
MTM; Compound(+V)
  IC50: 346 ± 24.8 nM
PTEN [4]
  IC50: 211 nM
PTEN [5]
  increase of PKB phosphorylation in comparison with the control: about 20%
  IC50: 96 nM
SopB; [9]
  IC50: 33.2 ± 6.5 nM
PTEN [2]
  specificity of phosphatase inhibition: specifically inhibit PTEN, but not SopB, MTM or PTP
  IC50: 14 ± 2.3 nM

## [K+].[O-][O-].[O-][O-].[O]=[V+3].c1ccc(-c2ccccn2)nc1 [bpV(bipy), potassium bisperoxo (bipyridine) oxovanadate]
[3]
  phosphorylated PKB signal: weak signal
PTP-β; aromatic bpVs, pNPP substrate
  IC50: 60.3 nM
PTEN [5]
  increase of PKB phosphorylation in comparison with the control: about 20%

## O.O.O.OO.OO.[K+].[OH-].[V].c1cnc2c(c1)ccc1cccnc12 [bpV(phen), potassium bisperoxo(1,10-phenanthroline)oxovanadate]
[3]
  phosphorylated PKB signal: no phosphorylation was visible
MTM; Compound(+V)
  IC50: 407 ± 38.5 nM
PTEN [4]
  IC50: 275 nM
[6]; 10 μM
  tyrosine phosphorylation: lower stimulation
NIH3T3 cells
  cellular morphology (actin staining): remained unchanged
SopB; [9]
  IC50: 102 nM
PTEN [2]
  IC50: 38 ± 2.4 nM

## O=C([O-])c1nccc2ccccc12.[K+].[K+].[O-][O-].[O-][O-].[O]=[V+3] [pV(isoqu)]
MTM; Compound(+V)
  IC50: 868 ± 187 nM
PTEN [4]
  IC50: 101 nM
PTP-β; V(+V) compounds
  IC50: 349000 ± 26500 nM
SopB; [9]
  IC50: 79.8 ± 9.7 nM

## O=C([O-])c1ccccn1.O=C([O-])c1ccccn1.[O]=[V+2] [pic4]
MTM; Compound(+IV)
  IC50: 6350 ± 3920 nM
PTP-β; V(+IV) compounds
  IC50: 589000 ± 32900 nM
SopB; [8]
  IC50: 125 ± 1.65 nM

## O=C([O][V](=[O])[O]C(=O)c1ccc2ccccc2n1)c1ccc2ccccc2n1 [quinolin4]
MTM; Compound(+IV)
  IC50: 9260 ± 40 nM
PTP-β; V(+IV) compounds
  IC50: 212000 ± 9400 nM
SopB
  IC50: 1960 ± 870 nM

## dipotassium bisperoxo(phenylbiguanide)oxovanadate [pV(phenbig)]
MTM; Compound(+V)
  IC50: 1890 ± 830 nM
PTEN [4]
  IC50: 48.5 nM
SopB; [9]
  IC50: 798 ± 41 nM
PTEN [2]
  specificity of phosphatase inhibition: specifically inhibit PTEN, but not SopB, MTM or PTP
  PTEN inhibition, summary in words: very good inhibitors

## potassium bisperoxo (piconlinate) oxovanadate [bpV(pic)]
[3]
  phosphorylated PKB signal: weak signal
[7]; 1 μM bpV(pic) after pre-incubation with 50 nM rapamycin
  phosphorylation of Ser473 of PKB: provoked phosphorylated Ser473
[7]; 1 μM bpV(pic) alone
  phosphorylation of Ser473 of PKB: no signal was visible
[7]; 10 μM bpV(pic) after pre-incubation with 10 μM Ly294002
  phosphorylation of Ser473 of PKB: reduced phosphorylation rate
[7]; 10 μM bpV(pic) alone
  phosphorylation of Ser473 of PKB: high degree of phosphorylation
MTM; Compound(+V)
  IC50: 239 ± 4.2 nM
[1]; 200 nM bpV(pic), Ly294002 0.01 to 100 μM
  effect on Ly294002 induced PKB inhibition: can abrogate Ly294002 induced PKB inhibition
[1]; in the presence of 200 nM bpV(pic)
  PKB phosphorylation at 5 μM Ly294002: phosphorylation still occurs
[6]; 0.01 μM
  tyrosine phosphorylation: not distinguishable to the negative control
[6]; 10 μM
  tyrosine phosphorylation: highest degree of tyrosine phosphorylation
NIH3T3 cells
  cellular morphology (actin staining): remained unchanged
PTEN [5]
  increase of PKB phosphorylation in comparison with the control: about 20%
  IC50: 48 nM
PTEN [2]
  IC50: 31 ± 1.7 nM
